{
  "source": "PubChem BioAssay AID504703",
  "about": "(Southern Research Specialized Biocontainment Screening …, 2011)",
  "system": "M. tuberculosis H37Rv growth inhibition with meropenem",
  "assay": "M. tuberculosis growth inhibition, H37Rv, set 2, dose response (AID 504703);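 further: growth ran 7 days at 37 °C then overnight with Alamar Blue before reading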",
  "key": {"[1]": {"conditions": "M. tuberculosis H37Rv growth inhibition, measured here: IC50 without meropenem"}, "[2]": {"conditions": "M. tuberculosis H37Rv growth inhibition, measured here: IC90 without meropenem"}, "[3]": {"conditions": "measured here: IC90 with meropenem"}},
  "note": "“And” between values parts separate entries of the source, which are not always exact repeats. Identical values can stand only once. The source made the active and inactive calls. How the calls were made is not given here.",
  "data": [
    {"smiles": "CC(C)Cn1c2c(c(O)c(C(=O)Nc3nccs3)c1=O)CCCC2", "values": [
      {"measurement": "IC50", "setting": "[1]", "result": "> 25", "unit": "µM"},
      {"measurement": "IC90", "setting": "[2]", "result": "> 25", "unit": "µM"}
    ]},
    {"smiles": "Cc1cc(C)c(OCC(=O)Nc2nc3ccc(C)cc3s2)c(C)c1", "values": [
      {"measurement": "IC50", "setting": "[1]", "result": "> 25", "unit": "µM"},
      {"measurement": "IC90", "setting": "[2]", "result": "> 25", "unit": "µM"}
    ]},
    {"smiles": "CC(=O)c1c(C)n(-c2cccc(Cl)c2)c2ccc(O)cc12", "values": [
      {"measurement": "IC50", "setting": "[1]", "result": "> 25", "unit": "µM"},
      {"measurement": "IC90", "setting": "[2]", "result": "> 25", "unit": "µM"}
    ]},
    {"smiles": "O=C(CCS(=O)(=O)c1ccc(F)cc1)Nc1nnc(-c2cccs2)o1", "values": [
      {"measurement": "IC50", "result": "> 18.8 µM (inactive) and 22.4 µM (inactive)"},
      {"measurement": "IC50", "setting": "[1]", "result": "> 25", "unit": "µM"},
      {"measurement": "IC90", "setting": "[2]", "result": "> 25", "unit": "µM"},
      {"measurement": "IC90", "setting": "[3]", "result": "> 25", "unit": "µM"}
    ]},
    {"smiles": "CCOc1ccc2c(c1)c(C(C)=O)c(C)n2Cc1ccco1", "values": [
      {"measurement": "IC50", "setting": "[1]", "result": "> 25", "unit": "µM"},
      {"measurement": "IC90", "setting": "[2]", "result": "> 25", "unit": "µM"}
    ]},
    {"smiles": "Cc1ccccc1OCC(=O)Nc1noc(-c2ccccc2)n1", "values": [
      {"measurement": "IC50", "setting": "[1]", "result": "> 25", "unit": "µM"},
      {"measurement": "IC90", "setting": "[2]", "result": "> 25", "unit": "µM"}
    ]},
    {"smiles": "COc1ccc2nc(NC(=O)c3oc4ccccc4c3C)sc2c1", "values": [
      {"measurement": "IC50", "setting": "[1]", "result": "> 25", "unit": "µM"},
      {"measurement": "IC90", "setting": "[2]", "result": "> 25", "unit": "µM"}
    ]},
    {"smiles": "CC(=O)c1c(C)n(-c2ccccc2C)c2ccc(O)cc12", "values": [
      {"measurement": "IC50", "setting": "[1]", "result": "> 25", "unit": "µM"},
      {"measurement": "IC90", "setting": "[2]", "result": "> 25", "unit": "µM"}
    ]},
    {"smiles": "CC(Oc1ccccc1)C(=O)Nc1nc2ccc(S(C)(=O)=O)cc2s1", "note": "(stereo unspecified)", "values": [
      {"measurement": "IC50", "setting": "[1]", "result": "> 25", "unit": "µM"},
      {"measurement": "IC90", "setting": "[2]", "result": "> 25", "unit": "µM"}
    ]},
    {"smiles": "O=C(COc1cccc2ccccc12)Nc1nc2ccccc2s1", "values": [
      {"measurement": "IC50", "setting": "[1]", "result": "> 25", "unit": "µM"},
      {"measurement": "IC90", "setting": "[2]", "result": "> 25", "unit": "µM"}
    ]},
    {"smiles": "CCOc1ccc2c(ccn2-c2ccccc2)c1", "values": [
      {"measurement": "IC50", "setting": "[1]", "result": "> 25", "unit": "µM"},
      {"measurement": "IC90", "setting": "[2]", "result": "> 25", "unit": "µM"}
    ]},
    {"smiles": "CCc1ccc2nc(/N=C(\\N)NC(=O)c3ccccc3)nc(C)c2c1", "values": [
      {"measurement": "IC50", "result": "0.82 µM (inactive)"},
      {"measurement": "IC50", "setting": "[1]", "result": 1.86, "unit": "µM"},
      {"measurement": "IC90", "setting": "[2]", "result": "> 12.5", "unit": "µM"},
      {"measurement": "IC90", "setting": "[3]", "result": "> 25", "unit": "µM"}
    ]},
    {"smiles": "COc1cccc(NC(=S)Nc2cc(C)cc(C)n2)c1", "values": [
      {"measurement": "IC50", "result": "7.2 µM (inactive)"},
      {"measurement": "IC50", "setting": "[1]", "result": 14.4, "unit": "µM"},
      {"measurement": "IC90", "setting": "[2]", "result": "> 25", "unit": "µM"},
      {"measurement": "IC90", "setting": "[3]", "result": "> 25", "unit": "µM"}
    ]},
    {"smiles": "COC(=O)c1sc(-c2ccc(C(C)(C)C)cc2)cc1NC(=O)CCC(=O)O", "values": [
      {"measurement": "IC50", "result": "7.32 µM (inactive)"},
      {"measurement": "IC50", "setting": "[1]", "result": "13.5 µM and 9.45 µM"},
      {"measurement": "IC90", "setting": "[2]", "result": "> 25", "unit": "µM"},
      {"measurement": "IC90", "setting": "[3]", "result": "> 25", "unit": "µM"}
    ]}
  ]
}
